# “And” between values parts separate entries of the source, which are not always exact repeats. Equal values may be shown once.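 Values below derive from 48-hour exposures of cells grown in 96-well plates, with endpoints linearly interpolated between the two concentrations bracketing the appropriate inhibition level. The concentration for 50% growth inhibition is given as GI50. Definition used: TGI = concentration required for complete inhibition of growth.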
# System: HCC-2998 colon
# Test: DTP human tumour cell line panel, 48 h
SMILES,TGI,GI50 [µM]
CCCCN(CCCC)CC(C(=O)Nc1ccc([N+](=O)[O-])cc1[N+](=O)[O-])/C(C)=N\NC(=S)NN (stereo not given),> 100 µM,–
S=C(N/N=C/c1ccco1)NC12CC3CC(CC(C3)C1)C2,> 100 µM,–
CS(=O)(=O)N/N=C/CN1C(=O)c2ccccc2C1=O,> 100 µM,–
CC(=O)O.CC(=O)O.CC(=O)O.CC(=O)O.CC(=O)O.CC(=O)O.O.[Ti].[Ti],> 100 µM,> 100
COC(=O)C1=C(c2ccc3c(c2)OCO3)O[C@H](c2cc(OC)c(OC)c(OC)c2)[C@H]1COC(C)=O,19.6 µM,–
COc1ccc(NC(=O)CCc2cc(-c3ccc(O)c(OC)c3)nc(NC#N)n2)cc1,> 100 µM,–
COC(=O)c1cc2c3ccccc3n(C(C)=O)c2cn1,> 100 µM,–
O=C1c2ccccc2C2(Br)C(=O)c3ccccc3C12 (stereo not given),> 100 µM,–
O=S(=O)([O-])c1ccc2c(c1)-c1nc-2nc2[n-]c(nc3nc(nc4[n-]c(n1)c1ccc(S(=O)(=O)[O-])cc41)-c1cc(S(=O)(=O)[O-])ccc1-3)c1ccc(S(=O)(=O)[O-])cc21.[Cu+2].[Na+],> 100 µM,> 100
CCCCOC(=O)C1C(c2ccc(Cl)cc2)NC(c2ccc(Cl)cc2)C(C(=O)OCCCC)S1(=O)=O (stereo not given),> 100 µM,–
Cc1cc(Br)cc(C)c1NC(=O)C(=O)C(C(=O)c1ccc2ccccc2c1)C1OC(=O)c2ccccc21 (stereo not given),24.7 µM,–
CCOC(=O)Oc1c(OC)cc(C(=O)NC2CCc3cc(OC)c(OC)c(OC)c3-c3ccc(SC)c(=O)cc32)cc1OC (stereo not given),0.187 µM and 0.039 µM,0.0156
CC(C)(C)OC(=O)NCC(=O)OCc1ccccc1,> 100 µM,–
Cc1ccc(SC(C)/C=C/NNC2=NC(c3ccccc3)C(c3ccccc3)=NN2)cc1 (stereo not given),98.2 µM,–
CC(C)(C)[SiH]12(OC(C(F)(F)F)(C(F)(F)F)c3ccccc31)OC(C(F)(F)F)(C(F)(F)F)c1ccccc12,12.9 µM,–
CSc1nc2c(nc(C)c(=O)n2C2OCC(OC(C)=O)C(OC(C)=O)C2OC(C)=O)c(=O)[nH]1 (stereo not given),> 100 µM,–
Cc1ccc(C(SCC(N)C(=O)O)(c2ccccc2)c2ccc(C)cc2)cc1 (stereo not given),2.77 µM,0.236
COc1cc(Nc2cn[nH]c2-c2ccc(Cl)cc2)cc(OC)c1OC,23.4 µM,5.46
CNCCNc1c2c(c(NCCNC)c3c(CN(C)C)c[nH]c13)C(=O)c1ccccc1C2=O,5.37 µM,1.36

SMILES,TGI,GI50 [µM]
O=C1OC(c2ccccc2)=N/C1=C/C=C/c1ccco1,> 100 µM,–
Cc1ccccc1N1C(=O)/C(=C/c2ccc(N(CCC#N)CCC#N)cc2)N=C1c1cc([N+](=O)[O-])ccc1Cl,> 100 µM,–
CC1OC2CC(=O)OC2C2=C1C(=O)c1c(O)cccc1C2=O (stereo not given),0.558 µM,0.236
O=C1NC(=Nc2ccccc2)S/C1=C\c1ccc2ncccc2c1,> 25 µM,> 25
C/C1=C\CC[C@@]2(C)O[C@@H]2[C@H]2OC(=O)[C@@H](CN(C)C)[C@@H]2CC1,35.7 µM,18
Oc1ccc(Cl)cc1Cc1cc(Cl)cc(Cl)c1O,18.9 µM,6.52
C=C(C=O)C1CCC2(C(=O)O)CCC3(C)C(CCC4C5(C)CCC(O)C(C)(C)C5CCC43C)C12 (stereo not given),3.36 µM,1.93
COc1ccc(N2C(=O)C(c3ccccc3)(c3ccccc3)C23C(=O)N(C)c2ccccc23)cc1 (stereo not given),> 100 µM,> 100
CC(C)=C[C@@H]1C[C@H](C)[C@H]2CC[C@H](C)C3=C2[C@](O)(OC3=O)[C@]1(C)O,> 100 µM,> 100
CCC[CH2][Sn]([CH2]CCC)([CH2]CCC)[O]C(=O)CC,0.316 µM,0.171
CNC(=S)NC1CCCCC1NC(=S)NC (stereo not given),> 100 µM,–
CC1OC(n2cc(F)c(=O)[nH]c2=O)C=CC1O (stereo not given),> 100 µM,–
C=C(C)[C@@]12OC3(/C=C/C=C/CCCCC)O[C@@H]1[C@@H]1[C@@H]4O[C@]4(CO)[C@@H](O)[C@]4(O)C(=O)C(C)=C[C@H]4[C@@]1(O3)[C@H](C)[C@H]2OC(=O)c1ccccc1,1.8 µM,< 0.01
C/C(=C\CCc1ccoc1)CC/C=C(\C)CCCC1=CC(=O)OC1,29.1 µM,8.4
C=C(C=O)[C@@H]1C2OC(=O)C(=C)[C@@H]2CC(O)[C@@]1(C)CC (stereo not given in full),31.1 µM,–
C=C(CCCCC)CN1CCCC1[C@@](C)(O)CC(=O)OCC (stereo not given in full),> 100 µM,–
O=c1c2ccccc2[se]n1-c1cccnc1,33.8 µM,–
O=C1c2ccccc2C(=O)C1(Cl)C1(S(=O)(=O)O)c2ccccc2-c2ccccc21,> 100 µM,–

# System: HCT-116 colon
# Test: DTP human tumour cell line panel, 48 h
SMILES,TGI,GI50 [µM]
O=[n+]1c2c(n([O-])c3ccccc31)CCCCCCCCCC2,> 100 µM,–
CNC(=S)N(C)C(=S)Nn1c(=O)c(C)nn(C)c1=S,> 100 µM,–
O=C1CCCC/C(=C/c2ccccc2)N1,> 100 µM,–
O=C1CN=C(C[N+](=O)[O-])c2ccccc21,> 100 µM,–
CCCCN(CCCC)CC(C(=O)Nc1ccc([N+](=O)[O-])cc1[N+](=O)[O-])/C(C)=N\NC(=S)NN (stereo not given),> 100 µM,–
S=C(N/N=C/c1ccco1)NC12CC3CC(CC(C3)C1)C2,> 100 µM,–
CS(=O)(=O)N/N=C/CN1C(=O)c2ccccc2C1=O,> 100 µM,–
CC(=O)O.CC(=O)O.CC(=O)O.CC(=O)O.CC(=O)O.CC(=O)O.O.[Ti].[Ti],> 100 µM,> 100
COC(=O)C1=C(c2ccc3c(c2)OCO3)O[C@H](c2cc(OC)c(OC)c(OC)c2)[C@H]1COC(C)=O,19.6 µM,–
COc1ccc(NC(=O)CCc2cc(-c3ccc(O)c(OC)c3)nc(NC#N)n2)cc1,> 100 µM,–
COC(=O)c1cc2c3ccccc3n(C(C)=O)c2cn1,> 100 µM,–
O=S(=O)([O-])c1ccc2c(c1)-c1nc-2nc2[n-]c(nc3nc(nc4[n-]c(n1)c1ccc(S(=O)(=O)[O-])cc41)-c1cc(S(=O)(=O)[O-])ccc1-3)c1ccc(S(=O)(=O)[O-])cc21.[Cu+2].[Na+],> 100 µM,15.8
Cc1cc(Br)cc(C)c1NC(=O)C(=O)C(C(=O)c1ccc2ccccc2c1)C1OC(=O)c2ccccc21 (stereo not given),29.4 µM,–
CCOC(=O)Oc1c(OC)cc(C(=O)NC2CCc3cc(OC)c(OC)c(OC)c3-c3ccc(SC)c(=O)cc32)cc1OC (stereo not given),0.311 µM and 0.0975 µM,< 0.007
CC(=O)Nc1ccc(C(=O)NN2C(=O)C(Cl)C2c2ccccc2)cc1 (stereo not given),> 100 µM,–
CC(C)(C)OC(=O)NCC(=O)OCc1ccccc1,> 100 µM,–
Cc1ccc(SC(C)/C=C/NNC2=NC(c3ccccc3)C(c3ccccc3)=NN2)cc1 (stereo not given),> 100 µM,–
CC(C)(C)[SiH]12(OC(C(F)(F)F)(C(F)(F)F)c3ccccc31)OC(C(F)(F)F)(C(F)(F)F)c1ccccc12,13 µM,–
CSc1nc2c(nc(C)c(=O)n2C2OCC(OC(C)=O)C(OC(C)=O)C2OC(C)=O)c(=O)[nH]1 (stereo not given),> 100 µM,–
Cc1ccc(C(SCC(N)C(=O)O)(c2ccccc2)c2ccc(C)cc2)cc1 (stereo not given),7.06 µM,0.0449
COc1cc(Nc2cn[nH]c2-c2ccc(Cl)cc2)cc(OC)c1OC,13.7 µM,3.73
CNCCNc1c2c(c(NCCNC)c3c(CN(C)C)c[nH]c13)C(=O)c1ccccc1C2=O,8.29 µM,1.55
CC1OC2CC(=O)OC2C2=C1C(=O)c1c(O)cccc1C2=O (stereo not given),0.107 µM,0.0286
O=C1NC(=Nc2ccccc2)S/C1=C\c1ccc2ncccc2c1,> 25 µM,1.14
C/C1=C\CC[C@@]2(C)O[C@@H]2[C@H]2OC(=O)[C@@H](CN(C)C)[C@@H]2CC1,20.4 µM,4.97
Oc1ccc(Cl)cc1Cc1cc(Cl)cc(Cl)c1O,12.9 µM,3.53
C=C(C=O)C1CCC2(C(=O)O)CCC3(C)C(CCC4C5(C)CCC(O)C(C)(C)C5CCC43C)C12 (stereo not given),2.83 µM,1.4
COc1ccc(N2C(=O)C(c3ccccc3)(c3ccccc3)C23C(=O)N(C)c2ccccc23)cc1 (stereo not given),> 100 µM,> 100
COc1ccc(C2S/C(=C\c3ccccc3O)C(=O)N2NC(=O)Cc2ccccc2)cc1 (stereo not given),> 100 µM,–
Cc1ccc(S(=O)(=O)NCC2CCCCC2=O)cc1 (stereo not given),> 100 µM,–

# From PubChem BioAssay (NCI)
